Results from article PMC11596155, “When Chirality Makes the Difference: The Case of Novel Enantiopure N-Heterocyclic Carbene–Gold and –Silver Complexes” (Molecules, 2024).

Key:
[1] = system: MCF-10A cells; experiment: MTT assay, cytotoxicity on normal mammary epithelial cells MCF-10A; assay type: cell-based, human; settings: 72 h, normal cells, mean ± SD of three experiments
Method: (§1) All cell lines used for the reported studies were purchased from the American Type Culture Collection (ATCC, Manassas, VA, USA). Human breast cancer cells MCF-7 and MDA-MB-231 were maintained in Dulbecco’s Modified Eagle Medium/Nutrient Mixture F12 Ham (DMEM/F12) supplemented with 5% fetal bovine serum (FBS), 1% L-glutamine and 100 units/mL of penicillin/streptomycin. Human mammary epithelial cells MCF-10A were cultured in DMEM/F12 medium, supplemented with 5% horse serum (HS), 100 units/mL of penicillin/streptomycin, […], 0.02 µg/mL human epidermal growth factor (EGF), 10 µg/mL insulin and […] [34]. The murine macrophages RAW 264.7 were grown in Dulbecco’s Modified Eagle’s Medium (DMEM) high glucose (4.5 g/L), added with 10% fetal bovine serum (FBS), 1% L-glutamine and 100 units/mL of penicillin/streptomycin. Cells were maintained at 37 °C, in a humidified atmosphere containing 5% CO2.
(§2) Cell viability was determined using the 3-(4,5-dimethylthiazol-2-y1)-2,5-diphenyltetrazolium bromide assay (MTT, Sigma-Aldrich, Milan, Italy), as in [35]. Cells were treated for 72 h (anticancer activity) or 24 h (anti-inflammatory activity) at different concentrations and the IC50 values were obtained using GraphPad Prism 9 software (GraphPad Software, La Jolla, CA, USA).

[2] = system: Staphylococcus aureus (ATCC 23235); experiment: MIC and MBC by broth dilution, S. aureus; assay type: cell-based; settings: for M.B.C. S. aureus / M.I.C. S. aureus / MIC: broth dilution, overnight 37 °C; for MIC: Staphylococcus aureus, ATCC23235, read-out: M.I.C. S. aureus
Description: (§3) The bacterial strains used for MIC and MBC value determinations expressed as µg/mL by the broth dilution method, according to CLSI guidelines, were the following: Gram-negative: Escherichia coli (ATCC® 25922TM); Gram-positive: Staphylococcus aureus (ATCC® 23235TM). The MIC represents the lowest concentration of compound able to inhibit the visible microbial growth, expressed in μg/mL, whereas the MBC is the lowest concentration of a given compound that can completely kill the bacteria. Bacteria were grown overnight in LB medium (2%), diluted at a density of […] colony forming units (CFUs/mL), plated in the 96-well microplates to obtain a total inoculum load of ca. 10^5 cells/well and then treated with increasing concentrations of the tested complexes (1, 5, 10, 20, 50, 100, 200 μg/mL). Successively, after incubation at 37 °C overnight, the bacterial growth was monitored at a wavelength of 600 nm using a Multiskan spectrophotometer (Multiskan Ex Microplate model; Thermo Scientific, Nyon, Switzerland). MIC or MBC values were obtained by comparing cell density with a positive control (bacterial cells grown in LB medium were added with only the vehicle, DMSO). The results were representative of three independent experiments performed in triplicate and ampicillin (Sigma Aldrich A9393) was used as the control for strain sensitivity.

[3] = system: Escherichia coli (ATCC 25922); experiment: MIC and MBC by broth dilution, E. coli; assay type: cell-based; settings: for M.B.C. E. coli / M.I.C. E. coli / MIC: broth dilution, overnight 37 °C; for MIC: Escherichia coli, ATCC25922
Description: as §3

[4] = system: MCF-7 cells; experiment: MTT assay, anticancer activity, MCF-7; assay type: cell-based, human; settings: mean ± SD of three experiments
Method: as §1, §2

[5] = system: MDA-MB-231 cells; experiment: MTT assay, anticancer activity, MDA-MB-231; assay type: cell-based, human; settings: for IC50: mean ± SD of three experiments
Method: as §1, §2

[6] = system: NO production in LPS-stimulated RAW 264.7 macrophages (iNOS); experiment: Griess assay, NO production in LPS-stimulated RAW 264.7 macrophages; assay type: cell-based, murine; settings: 24 h, LPS 1 µg/mL, RAW 264.7, vs LPS only
Description: Inflammation is an important process, in which the immune system is activated, allowing the protection from infections by eliminating pathogens and promoting repairing phenomena. However, in some cases, the inflammation can become chronic, playing a key role in several diseases, such as cancer, diabetes, autoimmune and neurodegenerative disorders. Moreover, chronic inflammation is characterized by a proliferation of different specialized cells, for instance macrophages, fibroblasts, granulocytes and so on. […] NO is produced by nitric oxide synthases (NOS) isoforms, but under different pro-inflammatory stimuli (cytokines or microbial products) it is massively produced by the inducible NOS (iNOS, NOS2; or type II NOS). iNOS can be also overexpressed in several diseases, producing NO in an unregulated manner and contributing to the disease progression. For these reasons, its inhibition represents a good strategy for the treatment of various diseases related to chronic inflammation, amongst them cancer. The anti-inflammatory activity, in terms of NO production inhibition, of the new synthesized chiral complexes was evaluated by the means of a Griess-based assay. Particularly, the NO production was induced in murine macrophages RAW 264.7 stimulated with bacterial lipopolysaccharide (LPS), then they were exposed to the complexes for 24 h and the released NO was quantified (as detailed in the Section 3). […] Therefore, pro-ligands P1 and P2, as R and S pure enantiomers, were tested. The obtained outcomes are visible in Figure 2 (panels A and B, P1 and P2 series, respectively), where it is possible to notice “at glance” that most of the enantiopure compounds were unable to decrease the NO synthesis, induced by LPS treatment in RAW 264.7 macrophages (see pink bars in the graph), with the exception of (R)-AuL1 and (R)-AuL2. Particularly, (R)-AuL1 was able to decrease, dose-dependently, the NO production of about 23 and 35% at 5 and 10 µM, respectively, whereas the S enantiomer was unable to reduce NO, under the same experimental conditions. […] Furthermore, none of the pro-ligands was found able to decrease NO production. […] Finally, viability assays were performed on RAW 264.7 macrophages, recovered after the Griess test.
Anti-inflammatory activity was tested adopting the Griess assay on RAW 264.7 murine macrophages, by measuring NO production, as reported by. Specifically, RAW 264.7 cells were plated on 48 multi-wells and treated with the tested molecules at the indicated concentrations; lipopolysaccharide (LPS, Sigma Aldrich, Milan, Italy), at a final concentration of 1 µg/mL, was used to induce inflammation and stimulate NO production. After 24 h, the cell medium and Griess reagent were mixed at a 1:1 ratio and left under agitation for 30 min, at room temperature. Then, absorbance was measured at 540 nm, using a multiplate reader. The absorbance obtained allowed to assess the percentage of NO production compared with the positive control, in which the cells have been treated with LPS.
Figure 2 Panel (A), L1 series and panel (B), L2 series. Anti-inflammatory activity (pink bars): NO production was induced in murine macrophages RAW 264.7 treated with LPS (1 µg/mL), in presence or not of the enantiopure complexes and pro-ligands at the indicated concentrations (µM), for 24 h. Indomethacin (Ind) was used as the reference molecule. Data were plotted as % NO inhibition with respect to LPS-only treatment. […]

| MIC [2] | MIC [3] | IC50 ([4]; Homo sapiens, MCF7, 72 h) | IC50 ([5]; Homo sapiens, MDA-MB-231, 72 h) | SMILES | IC50 [1] | M.B.C. S. aureus [2] | M.I.C. S. aureus [2] | M.B.C. E. coli [3] | M.I.C. E. coli [3] | IC50 ([4]; 72 h) | IC50 ([5]; 72 h) | decrease of NO production ([6]; 5 µM) | decrease of NO production ([6]; 10 µM) | IC50 ([1]; Homo sapiens, MCF-10A) | effect on MDA-MB-231 viability (in words) ([5]; 72 h) | decrease of NO production ([6]; 50 µM) | strain sensitivity S. aureus (in words) ([2]; control for strain sensitivity) | strain sensitivity E. coli (in words) ([3]; control for strain sensitivity) |
| --- | --- | --- | --- | --- | --- | --- | --- | --- | --- | --- | --- | --- | --- | --- | --- | --- | --- | --- |
|  |  |  |  | CN1C=CN(C[C@H](O)c2ccccc2)[CH]1[AgH][I] (stereo partly drawn) [(R)-AgL1, (1-((R)-2-hydroxy-2-phenylethyl)-3-methyl-2,3-dihydro-1H-imidazol-2-yl)silver(I) iodide] | 54.8 ± 2.1 µM | > 150 µg/mL | 75 µg/mL | > 100 µg/mL | 25 µg/mL | 14.5 ± 1.2 µM | 9.2 ± 0.5 µM |  |  |  |  |  |  |  |
|  |  |  |  | CN1C(Cl)=C(Cl)N(C[C@H](O)c2ccccc2)[CH]1[AgH][I] (stereo partly drawn) [(R)-AgL2, (4,5-dichloro-1-((R)-2-hydroxy-2-phenylethyl)-3-methyl-2,3-dihydro-1H-imidazol-2-yl)silver(I) iodide] | 69.2 ± 2.7 µM | > 150 µg/mL | 75 µg/mL | > 100 µg/mL | 50 µg/mL | 18.4 ± 0.9 µM | 6.7 ± 0.7 µM |  |  |  |  |  |  |  |
|  |  |  |  | CN1C=CN(C[C@H](O)c2ccccc2)[CH]1[Au-][Cl] (stereo partly drawn) [(R)-AuL1, (1-((R)-2-hydroxy-2-phenylethyl)-3-methyl-2,3-dihydro-1H-imidazol-2-yl)gold(I) chloride] | 52.9 ± 2.2 µM | > 150 µg/mL | 25 µg/mL | > 150 µg/mL | 75 µg/mL | 16 ± 0.8 µM | 15.3 ± 4.5 µM | about 23% | ~35% |  |  |  |  |  |
| 75 µg/mL | 100 µg/mL | > 200 µM | > 200 µM | C[n+]1ccn(C[C@H](O)c2ccccc2)c1.[I-] [(R)-P1, (R)-1-(2-hydroxy-2-phenylethyl)-3-methyl-1H-imidazol-3-ium iodide] |  | > 150 µg/mL |  | > 200 µg/mL |  |  |  |  |  | > 200 µM |  |  |  |  |
| 75 µg/mL | 75 µg/mL | > 200 µM | > 200 µM | C[n+]1cn(C[C@H](O)c2ccccc2)c(Cl)c1Cl.[I-] [(R)-P2, (R)-4,5-dichloro-1-(2-hydroxy-2-phenylethyl)-3-methyl-1H-imidazol-3-ium iodide] |  | > 150 µg/mL |  | > 200 µg/mL |  |  |  |  |  | > 200 µM |  |  |  |  |
|  |  |  |  | CN1C=CN(C[C@@H](O)c2ccccc2)[CH]1[AgH][I] (stereo partly drawn) [(S)-AgL1, (1-((S)-2-hydroxy-2-phenylethyl)-3-methyl-2,3-dihydro-1H-imidazol-2-yl)silver(I) iodide] | > 200 µM | > 100 µg/mL | 50 µg/mL | > 200 µg/mL | 75 µg/mL | 69.8 ± 2.1 µM | > 200 µM |  |  |  |  |  |  |  |
|  |  |  |  | CN1C(Cl)=C(Cl)N(C[C@@H](O)c2ccccc2)[CH]1[AgH][I] (stereo partly drawn) [(S)-AgL2, (4,5-dichloro-1-((S)-2-hydroxy-2-phenylethyl)-3-methyl-2,3-dihydro-1H-imidazol-2-yl)silver(I) iodide] | > 200 µM | > 200 µg/mL | 75 µg/mL | > 200 µg/mL | 75 µg/mL | 4 ± 0.5 µM | > 200 µM |  |  |  | inactive |  |  |  |
|  |  |  |  | CN1C=CN(C[C@@H](O)c2ccccc2)[CH]1[Au-][Cl] (stereo partly drawn) [(S)-AuL1, (1-((S)-2-hydroxy-2-phenylethyl)-3-methyl-2,3-dihydro-1H-imidazol-2-yl)gold(I) chloride] | 64.5 ± 3.2 µM | > 150 µg/mL | 75 µg/mL | > 150 µg/mL | 75 µg/mL | 14.6 ± 1 µM | 22.6 ± 0.4 µM |  |  |  |  |  |  |  |
|  |  |  |  | CN1C(Cl)=C(Cl)N(C[C@@H](O)c2ccccc2)[CH]1[Au-][Cl] (stereo partly drawn) [(S)-AuL2, (4,5-dichloro-1-((S)-2-hydroxy-2-phenylethyl)-3-methyl-2,3-dihydro-1H-imidazol-2-yl)gold(I) chloride] | 17.2 ± 1.6 µM | > 100 µg/mL | 75 µg/mL | > 200 µg/mL | 100 µg/mL | 10 ± 0.5 µM | 11.5 ± 0.4 µM |  |  |  |  |  |  |  |
| 75 µg/mL | 100 µg/mL | > 200 µM | > 200 µM | C[n+]1ccn(C[C@@H](O)c2ccccc2)c1.[I-] [(S)-P1, (S)-1-(2-hydroxy-2-phenylethyl)-3-methyl-1H-imidazol-3-ium iodide] |  | > 150 µg/mL |  | > 200 µg/mL |  |  |  |  |  | > 200 µM |  |  |  |  |
| 75 µg/mL | 75 µg/mL | > 200 µM | > 200 µM | C[n+]1cn(C[C@@H](O)c2ccccc2)c(Cl)c1Cl.[I-] [(S)-P2, (S)-4,5-dichloro-1-(2-hydroxy-2-phenylethyl)-3-methyl-1H-imidazol-3-ium iodide] |  | > 200 µg/mL |  | > 150 µg/mL |  |  |  |  |  | > 200 µM |  |  |  |  |
|  |  |  |  | COc1ccc2c(c1)c(CC(=O)O)c(C)n2C(=O)c1ccc(Cl)cc1 [Ind, Indomethacin, reference compound] |  |  |  |  |  |  |  |  |  |  |  | about 26% |  |  |
|  |  |  |  | CC1(C)S[C@@H]2[C@H](NC(=O)[C@H](N)c3ccccc3)C(=O)N2[C@H]1C(=O)O [ampicillin, reference compound] |  |  |  |  |  |  |  |  |  |  |  |  | sensitive | sensitive |
